EC50 data for 28 compounds are collected here from PubChem BioAssay AID651790 (The Scripps Research Institute Molecular Screening Center, 2012).

Broadly, the EC50 is the concentration at which the effect is half-maximal.

Calls of active or inactive are those of the source. The rule behind the calls is not given here.

The test system of the test is cells with GAA30 frataxin promoter-luciferase, luminescence. The experiment in a line: short-repeat frataxin promoter luciferase activation – cell-based, luminescence, GAA30 repeat, counter-screen for GAA850 frataxin promoter activators, dose response (AID 651790).
Turning to `COc1ccc(-c2nnc(Nc3nc4ccc(F)cc4s3)o2)c(OC)c1`, the EC50 is > 59.6 µM (inactive).
`CSc1ccc2nc(Nc3nnc(-c4ccc5c(c4)OCCO5)o3)sc2c1`: the EC50 was > 59.6 µM (inactive).
As for `Fc1cccc2sc(Nc3nnc(-c4ccccc4Cl)o3)nc12`, the EC50 is 4.95 µM.
On to `Cc1ccc(NC(=O)c2cnc(SCC(=O)Nc3cccc(C(F)(F)F)c3)n(C)c2=O)cc1C`, for which the EC50 was 28.7 µM (inactive).
For the compound `COc1ccccc1NC(=O)c1cnc(SCC(=O)NCC2CCCO2)n(C)c1=O` (stereo not drawn), the EC50 is > 59.6 µM (inactive).
For `Clc1ccccc1-c1nnc(Nc2nc3cc4c(cc3s2)OCO4)o1`, the EC50 was 53.1 µM (inactive).
Next, `Fc1ccc(-c2nnc(Nc3nc4c(F)cccc4s3)o2)cc1`: 0.634 µM; `COc1ccccc1NC(=O)c1cnc(SCC(=O)Nc2cc(C)on2)n(C)c1=O`: > 59.6 µM (inactive); `COc1ccccc1NC(=O)c1cnc(SCC(=O)NCc2ccccc2)n(C)c1=O`: > 59.6 µM (inactive).
Next, `CSc1ccc2nc(Nc3nnc(-c4ccccc4Cl)o3)sc2c1`: 27.6 µM (inactive); `Fc1ccc2nc(Nc3nnc(-c4ccccc4Cl)o3)sc2c1`: > 59.6 µM (inactive).
Next, `COc1ccc(-c2nnc(Nc3nc4cc(OC)ccc4s3)o2)c(OC)c1`: > 59.6 µM (inactive).
Turning to `COc1cccc2sc(Nc3nnc(-c4ccccc4Cl)o3)nc12`, the EC50 is > 59.6 µM (inactive).
Turning to `COc1ccccc1NC(=O)c1cnc(SCC(=O)Nc2nc3ccccc3s2)n(C)c1=O`, the EC50 was > 59.6 µM (inactive).
Next, `COc1ccccc1-c1nnc(Nc2nc3c(OC)cccc3s2)o1`: > 59.6 µM (inactive); `COc1ccccc1NC(=O)c1cnc(SCC(=O)NCCc2ccccc2)n(C)c1=O`: > 59.6 µM (inactive).
On to `COc1cccc2sc(Nc3nnc(-c4ccccc4)o3)nc12`, for which the EC50 is > 59.6 µM (inactive).
Consider `CCc1nnc(NC(=O)CSc2ncc(C(=O)Nc3ccc(C)c(C)c3)c(=O)n2C)s1`, for which the EC50 was > 59.6 µM (inactive).
Next, `COc1ccccc1NC(=O)c1cnc(SCC(=O)Nc2ccc3c(c2)OCO3)n(C)c1=O`: > 59.6 µM (inactive); `Clc1ccc(-c2nnc(Nc3nc4cc5c(cc4s3)OCO5)o2)cc1`: > 59.6 µM (inactive); `COc1ccc(-c2nnc(Nc3nc4ccc(OC)cc4s3)o2)c(OC)c1`: > 59.6 µM (inactive).
Next, `COc1ccc(-c2nnc(Nc3nc4ccc(SC)cc4s3)o2)c(OC)c1`: > 59.6 µM (inactive); `COc1ccc(-c2nnc(Nc3nc4c(OC)cccc4s3)o2)c(OC)c1`: > 59.6 µM (inactive); `Cn1c(SCC(=O)NCC2CCCO2)ncc(C(=O)Nc2ccccc2)c1=O` (stereo not drawn): > 59.6 µM (inactive).
For `Cn1c(SCC(=O)NCC2CCCO2)ncc(C(=O)Nc2ccc(F)cc2)c1=O` (stereo not drawn), the EC50 is > 59.6 µM (inactive).
Next, `COc1ccc(-c2nnc(Nc3nc4c(OC)cccc4s3)o2)cc1`: > 59.6 µM (inactive).
Regarding `COc1ccccc1NC(=O)c1cnc(SCC(=O)NCc2ccc3c(c2)OCO3)n(C)c1=O`, the EC50 is > 59.6 µM (inactive).
On to `COc1ccccc1CNC(=O)CSc1ncc(C(=O)Nc2ccccc2)c(=O)n1C`, for which the EC50 was > 59.6 µM (inactive).
